Source: ChEMBL document CHEMBL4507294, “Data for DCP probe MSD-CYP11B2” (2021)

Key:
[1] = tested on: Tyrosine-protein kinase ABL1 (Homo sapiens), P00519 [F317L]; conditions: Compound concentration 1000.0 nM
[2] = target: Tyrosine-protein kinase ABL1 (Homo sapiens) (UniProt P00519); conditions: Compound concentration 1000.0 nM
[3] = target: Atypical kinase COQ8A, mitochondrial (Homo sapiens) (UniProt Q8NI60); conditions: Compound concentration 1000.0 nM
[4] = target: RAC-gamma serine/threonine-protein kinase (Homo sapiens) (UniProt Q9Y243); conditions: Compound concentration 1000.0 nM
[5] = target: Mitogen-activated protein kinase kinase kinase 5 (Homo sapiens) (UniProt Q99683); conditions: Compound concentration 1000.0 nM
[6] = target: BMP-2-inducible protein kinase (Homo sapiens) (UniProt Q9NSY1); conditions: Compound concentration 1000.0 nM
[7] = target: Bone morphogenetic protein receptor type-1A (Homo sapiens) (UniProt P36894); conditions: Compound concentration 1000.0 nM
[8] = target: Cytoplasmic tyrosine-protein kinase BMX (Homo sapiens) (UniProt P51813); conditions: Compound concentration 1000.0 nM
[9] = target: Calcium/calmodulin-dependent protein kinase type II subunit alpha (Homo sapiens) (UniProt Q9UQM7); conditions: Compound concentration 1000.0 nM
Sequence of Calcium/calmodulin-dependent protein kinase type II subunit alpha (Homo sapiens) (Q9UQM7 whole entry): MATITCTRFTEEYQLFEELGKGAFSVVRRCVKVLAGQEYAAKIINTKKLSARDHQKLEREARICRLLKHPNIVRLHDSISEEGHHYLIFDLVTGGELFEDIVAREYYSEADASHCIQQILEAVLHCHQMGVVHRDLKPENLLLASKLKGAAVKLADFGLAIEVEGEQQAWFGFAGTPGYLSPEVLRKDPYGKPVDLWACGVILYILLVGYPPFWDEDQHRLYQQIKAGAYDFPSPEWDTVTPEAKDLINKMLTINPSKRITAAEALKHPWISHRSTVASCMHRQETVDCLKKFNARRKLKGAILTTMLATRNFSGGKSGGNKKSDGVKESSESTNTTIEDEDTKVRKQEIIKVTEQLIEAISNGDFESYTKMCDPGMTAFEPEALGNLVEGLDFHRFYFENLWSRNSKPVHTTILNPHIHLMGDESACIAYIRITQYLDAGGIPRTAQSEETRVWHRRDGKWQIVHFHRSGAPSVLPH

[10] = target: Cyclin-dependent kinase 19 (Homo sapiens) (UniProt Q9BWU1); conditions: Compound concentration 1000.0 nM
[11] = target: Cyclin-dependent kinase-like 5 (Homo sapiens) (UniProt O76039); conditions: Compound concentration 1000.0 nM
[12] = target: Dual specificity protein kinase CLK4 (Homo sapiens) (UniProt Q9HAZ1); conditions: Compound concentration 1000.0 nM
[13] = target: Casein kinase I isoform epsilon (Homo sapiens) (UniProt P49674); conditions: Compound concentration 1000.0 nM
[14] = target: Serine/threonine-protein kinase DCLK1 (Homo sapiens) (UniProt O15075); conditions: Compound concentration 1000.0 nM
[15] = tested on: Epidermal growth factor receptor (Homo sapiens), P00533 [G719C]; conditions: Compound concentration 1000.0 nM
[16] = target: Eukaryotic translation initiation factor 2-alpha kinase 1 (Homo sapiens) (UniProt Q9BQI3); conditions: Compound concentration 1000.0 nM
[17] = target: Ephrin type-B receptor 2 (Homo sapiens) (UniProt P29323); conditions: Compound concentration 1000.0 nM
[18] = target: Ephrin type-B receptor 4 (Homo sapiens) (UniProt P54760); conditions: Compound concentration 1000.0 nM
[19] = target: Mitogen-activated protein kinase 7 (Homo sapiens) (UniProt Q13164); conditions: Compound concentration 1000.0 nM
[20] = target: Mitogen-activated protein kinase 15 (Homo sapiens) (UniProt Q8TD08); conditions: Compound concentration 1000.0 nM
[21] = target: Fibroblast growth factor receptor 4 (Homo sapiens) (UniProt P22455); conditions: Compound concentration 1000.0 nM
[22] = target: Vascular endothelial growth factor receptor 3 (Homo sapiens) (UniProt P35916); conditions: Compound concentration 1000.0 nM
[23] = target: Glycogen synthase kinase-3 alpha (Homo sapiens) (UniProt P49840); conditions: Compound concentration 1000.0 nM
[24] = target: Insulin receptor (Homo sapiens) (UniProt P06213); conditions: Compound concentration 1000.0 nM
Sequence of Insulin receptor (Homo sapiens) (P06213 28-758 limits assumed): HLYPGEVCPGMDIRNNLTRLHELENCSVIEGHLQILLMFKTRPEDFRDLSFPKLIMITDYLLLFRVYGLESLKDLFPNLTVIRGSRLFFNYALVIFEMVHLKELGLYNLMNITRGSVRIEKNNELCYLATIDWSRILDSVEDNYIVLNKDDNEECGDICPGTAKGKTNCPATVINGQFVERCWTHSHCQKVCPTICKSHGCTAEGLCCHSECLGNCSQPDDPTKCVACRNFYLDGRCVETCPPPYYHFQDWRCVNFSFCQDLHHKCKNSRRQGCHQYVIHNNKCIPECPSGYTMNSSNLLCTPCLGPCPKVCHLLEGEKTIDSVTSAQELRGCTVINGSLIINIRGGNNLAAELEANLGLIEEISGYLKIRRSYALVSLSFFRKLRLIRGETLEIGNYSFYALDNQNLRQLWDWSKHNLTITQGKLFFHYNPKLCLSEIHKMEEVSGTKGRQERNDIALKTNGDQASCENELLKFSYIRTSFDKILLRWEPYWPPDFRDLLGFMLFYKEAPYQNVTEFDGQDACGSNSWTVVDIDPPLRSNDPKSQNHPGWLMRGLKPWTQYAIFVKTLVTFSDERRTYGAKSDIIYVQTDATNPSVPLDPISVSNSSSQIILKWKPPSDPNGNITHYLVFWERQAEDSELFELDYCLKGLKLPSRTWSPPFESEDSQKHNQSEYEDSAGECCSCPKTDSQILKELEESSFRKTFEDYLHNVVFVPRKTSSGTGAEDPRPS
Sequence of Insulin receptor (Homo sapiens) (P06213 763-1382 limits assumed): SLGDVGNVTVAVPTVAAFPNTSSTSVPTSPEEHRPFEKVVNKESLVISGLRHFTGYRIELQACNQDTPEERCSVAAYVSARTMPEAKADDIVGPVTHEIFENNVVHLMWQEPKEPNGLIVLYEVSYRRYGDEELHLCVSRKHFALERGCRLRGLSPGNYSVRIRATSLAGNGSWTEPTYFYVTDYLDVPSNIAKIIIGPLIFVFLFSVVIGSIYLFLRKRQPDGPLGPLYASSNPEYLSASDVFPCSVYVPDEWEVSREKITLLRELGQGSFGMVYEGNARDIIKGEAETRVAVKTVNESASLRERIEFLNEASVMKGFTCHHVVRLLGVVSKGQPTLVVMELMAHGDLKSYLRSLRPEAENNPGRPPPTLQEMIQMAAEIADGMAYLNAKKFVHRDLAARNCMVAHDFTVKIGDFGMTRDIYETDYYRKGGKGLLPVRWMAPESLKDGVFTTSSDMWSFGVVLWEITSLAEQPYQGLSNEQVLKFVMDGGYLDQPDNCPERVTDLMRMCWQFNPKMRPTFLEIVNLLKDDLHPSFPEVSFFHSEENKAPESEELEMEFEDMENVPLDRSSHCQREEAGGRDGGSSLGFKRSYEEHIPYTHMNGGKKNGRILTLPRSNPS

[25] = target: Interleukin-1 receptor-associated kinase 1 (Homo sapiens) (UniProt P51617); conditions: Compound concentration 1000.0 nM
[26] = target: Mitogen-activated protein kinase 9 (Homo sapiens) (UniProt P45984); conditions: Compound concentration 1000.0 nM
Sequence of Mitogen-activated protein kinase 9 (Homo sapiens) (P45984 whole entry, looked up): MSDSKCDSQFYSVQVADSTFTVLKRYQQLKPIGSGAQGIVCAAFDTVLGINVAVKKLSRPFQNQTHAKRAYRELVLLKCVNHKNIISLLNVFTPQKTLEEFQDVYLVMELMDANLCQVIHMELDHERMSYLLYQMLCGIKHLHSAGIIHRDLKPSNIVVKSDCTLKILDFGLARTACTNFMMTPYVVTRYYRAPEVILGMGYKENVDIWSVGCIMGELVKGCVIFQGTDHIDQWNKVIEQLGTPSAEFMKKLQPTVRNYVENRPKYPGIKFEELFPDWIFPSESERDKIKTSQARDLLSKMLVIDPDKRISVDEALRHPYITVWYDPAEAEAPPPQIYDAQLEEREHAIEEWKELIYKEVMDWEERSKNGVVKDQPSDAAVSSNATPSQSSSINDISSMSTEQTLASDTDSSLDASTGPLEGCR

[27] = target: Tyrosine-protein kinase Lyn (Homo sapiens) (UniProt P07948); conditions: Compound concentration 1000.0 nM
[28] = target: Mitogen-activated protein kinase kinase kinase 13 (Homo sapiens) (UniProt O43283); conditions: Compound concentration 1000.0 nM
[29] = target: MAP/microtubule affinity-regulating kinase 3 (Homo sapiens) (UniProt P27448); conditions: Compound concentration 1000.0 nM
[30] = target: MAP/microtubule affinity-regulating kinase 4 (Homo sapiens) (UniProt Q96L34); conditions: Compound concentration 1000.0 nM
Sequence of MAP/microtubule affinity-regulating kinase 4 (Homo sapiens) (Q96L34 whole entry): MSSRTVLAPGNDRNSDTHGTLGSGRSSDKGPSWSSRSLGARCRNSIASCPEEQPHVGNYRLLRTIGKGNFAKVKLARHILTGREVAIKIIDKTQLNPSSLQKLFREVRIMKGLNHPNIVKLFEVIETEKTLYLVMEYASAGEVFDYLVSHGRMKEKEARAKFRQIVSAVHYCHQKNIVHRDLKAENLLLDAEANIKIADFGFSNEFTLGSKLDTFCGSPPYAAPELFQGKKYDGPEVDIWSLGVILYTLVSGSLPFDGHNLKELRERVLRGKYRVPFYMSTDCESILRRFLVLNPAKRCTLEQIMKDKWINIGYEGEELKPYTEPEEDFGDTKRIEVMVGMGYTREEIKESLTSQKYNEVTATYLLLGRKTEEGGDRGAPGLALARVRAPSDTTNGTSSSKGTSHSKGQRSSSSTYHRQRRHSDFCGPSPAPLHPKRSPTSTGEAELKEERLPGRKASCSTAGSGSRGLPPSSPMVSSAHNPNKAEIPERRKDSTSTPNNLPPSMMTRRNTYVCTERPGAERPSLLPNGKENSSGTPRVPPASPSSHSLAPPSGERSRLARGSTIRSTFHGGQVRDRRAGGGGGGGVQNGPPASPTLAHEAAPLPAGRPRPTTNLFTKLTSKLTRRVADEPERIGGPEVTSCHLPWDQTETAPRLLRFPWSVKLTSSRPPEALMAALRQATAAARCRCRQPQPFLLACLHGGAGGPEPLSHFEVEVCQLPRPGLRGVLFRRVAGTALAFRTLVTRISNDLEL

[31] = target: Serine/threonine-protein kinase Nek3 (Homo sapiens) (UniProt P51956); conditions: Compound concentration 1000.0 nM
[32] = target: Serine/threonine-protein kinase NLK (Homo sapiens) (UniProt Q9UBE8); conditions: Compound concentration 1000.0 nM
[33] = target: Serine/threonine-protein kinase PAK 1 (Homo sapiens) (UniProt Q13153); conditions: Compound concentration 1000.0 nM
Sequence of Serine/threonine-protein kinase PAK 1 (Homo sapiens) (Q13153 whole entry): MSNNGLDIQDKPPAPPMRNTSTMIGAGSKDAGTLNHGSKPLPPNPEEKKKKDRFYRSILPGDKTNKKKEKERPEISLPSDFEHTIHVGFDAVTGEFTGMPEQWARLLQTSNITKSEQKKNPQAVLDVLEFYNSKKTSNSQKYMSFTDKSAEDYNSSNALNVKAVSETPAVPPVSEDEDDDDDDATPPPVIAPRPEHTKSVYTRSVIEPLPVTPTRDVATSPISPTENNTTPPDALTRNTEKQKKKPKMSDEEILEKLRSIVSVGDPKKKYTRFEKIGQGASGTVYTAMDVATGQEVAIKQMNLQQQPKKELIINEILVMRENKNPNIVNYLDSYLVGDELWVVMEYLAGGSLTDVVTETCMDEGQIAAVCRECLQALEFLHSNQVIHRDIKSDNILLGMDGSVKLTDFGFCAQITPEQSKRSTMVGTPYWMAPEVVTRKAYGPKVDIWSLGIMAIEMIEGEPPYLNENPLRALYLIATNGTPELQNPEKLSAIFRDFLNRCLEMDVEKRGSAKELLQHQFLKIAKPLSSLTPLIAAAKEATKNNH

[34] = target: Serine/threonine-protein kinase PAK 2 (Homo sapiens) (UniProt Q13177); conditions: Compound concentration 1000.0 nM
[35] = target: Cyclin-dependent kinase 15 (Homo sapiens) (UniProt Q96Q40); conditions: Compound concentration 1000.0 nM
[36] = target: Protein kinase C theta type (Homo sapiens) (UniProt Q04759); conditions: Compound concentration 1000.0 nM
[37] = target: Serine/threonine-protein kinase D2 (Homo sapiens) (UniProt Q9BZL6); conditions: Compound concentration 1000.0 nM
[38] = tested on: Proto-oncogene tyrosine-protein kinase receptor Ret (Homo sapiens), P07949 [V804M]; conditions: Compound concentration 1000.0 nM
[39] = target: Ribosomal protein S6 kinase beta-1 (Homo sapiens) (UniProt P23443); conditions: Compound concentration 1000.0 nM
[40] = target: Serine/threonine-protein kinase SIK1 (Homo sapiens) (UniProt P57059); conditions: Compound concentration 1000.0 nM
Sequence of Serine/threonine-protein kinase SIK1 (Homo sapiens) (P57059 whole entry): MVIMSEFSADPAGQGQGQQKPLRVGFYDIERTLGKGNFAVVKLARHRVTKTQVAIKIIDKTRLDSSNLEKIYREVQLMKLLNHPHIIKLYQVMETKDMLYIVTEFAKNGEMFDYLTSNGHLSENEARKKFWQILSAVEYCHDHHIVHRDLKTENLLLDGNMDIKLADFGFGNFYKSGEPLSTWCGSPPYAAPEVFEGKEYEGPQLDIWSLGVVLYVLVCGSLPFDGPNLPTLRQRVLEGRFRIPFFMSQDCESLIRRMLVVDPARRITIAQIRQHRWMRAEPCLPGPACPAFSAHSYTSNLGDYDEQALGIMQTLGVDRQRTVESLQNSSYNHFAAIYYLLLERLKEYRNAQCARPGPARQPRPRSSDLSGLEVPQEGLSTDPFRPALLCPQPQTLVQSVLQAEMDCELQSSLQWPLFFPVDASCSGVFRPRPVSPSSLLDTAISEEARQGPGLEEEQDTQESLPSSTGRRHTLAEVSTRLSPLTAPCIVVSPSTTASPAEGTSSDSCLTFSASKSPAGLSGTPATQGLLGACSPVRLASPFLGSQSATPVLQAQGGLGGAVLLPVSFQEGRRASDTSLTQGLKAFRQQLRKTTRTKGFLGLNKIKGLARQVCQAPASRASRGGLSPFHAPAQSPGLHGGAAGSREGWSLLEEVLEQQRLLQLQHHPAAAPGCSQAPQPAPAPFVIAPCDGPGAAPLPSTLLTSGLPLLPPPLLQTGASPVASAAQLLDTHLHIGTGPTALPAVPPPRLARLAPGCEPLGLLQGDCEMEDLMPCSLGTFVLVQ

[41] = target: SRSF protein kinase 2 (Homo sapiens) (UniProt P78362); conditions: Compound concentration 1000.0 nM
[42] = target: Serine/threonine-protein kinase 35 (Homo sapiens) (UniProt Q8TDR2); conditions: Compound concentration 1000.0 nM
Sequence of Serine/threonine-protein kinase 35 (Homo sapiens) (Q8TDR2 whole entry): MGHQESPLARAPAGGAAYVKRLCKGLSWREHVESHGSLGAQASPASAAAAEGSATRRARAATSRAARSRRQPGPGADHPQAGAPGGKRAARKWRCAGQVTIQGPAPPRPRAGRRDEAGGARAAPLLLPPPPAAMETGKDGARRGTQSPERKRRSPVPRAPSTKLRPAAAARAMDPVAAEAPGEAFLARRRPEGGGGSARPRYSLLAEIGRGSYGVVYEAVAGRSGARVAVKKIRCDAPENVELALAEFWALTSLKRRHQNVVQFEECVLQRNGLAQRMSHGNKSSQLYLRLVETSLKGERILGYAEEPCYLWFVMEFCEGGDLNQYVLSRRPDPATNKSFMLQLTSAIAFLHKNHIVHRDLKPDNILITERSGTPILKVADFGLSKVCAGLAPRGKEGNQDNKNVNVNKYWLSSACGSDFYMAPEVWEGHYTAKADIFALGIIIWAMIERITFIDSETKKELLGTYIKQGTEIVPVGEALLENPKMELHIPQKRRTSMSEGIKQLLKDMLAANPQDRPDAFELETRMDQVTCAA

[43] = target: Testis-specific serine/threonine-protein kinase 3 (Homo sapiens) (UniProt Q96PN8); conditions: Compound concentration 1000.0 nM
[44] = target: Tyrosine-protein kinase Yes (Homo sapiens) (UniProt P07947); conditions: Compound concentration 1000.0 nM
[45] = target: Mitogen-activated protein kinase kinase kinase 19 (Homo sapiens) (UniProt Q56UN5); conditions: Compound concentration 1000.0 nM
[46] = target: 5-hydroxytryptamine receptor 1D (Homo sapiens) (UniProt P28221); conditions: Compound concentration 10.0 uM

CC(C)(O)c1cncc(-c2nc3ccc(F)cc3n2C2CC2)c1 [MSD-CYP11B2]
inactive: residual activity [1] 100% | residual activity [2] 98% | residual activity [3] 100% | residual activity [4] 100% | residual activity [5] 100% | residual activity [6] 100% | residual activity [7] 88% | residual activity [8] 100% | residual activity [9] 94% | residual activity [10] 94% | residual activity [11] 100% | residual activity [12] 54% | residual activity [13] 100% | residual activity [14] 88% | residual activity [15] 100% | residual activity [16] 100% | residual activity [17] 99% | residual activity [18] 100% | residual activity [19] 100% | residual activity [20] 90% | residual activity [21] 100% | residual activity [22] 100% | residual activity [23] 100% | residual activity [24] 100% | residual activity [25] 100% | residual activity [26] 100% | residual activity [27] 100% | residual activity [28] 100% | residual activity [29] 100% | residual activity [30] 100% | residual activity [31] 100% | residual activity [32] 100% | residual activity [33] 100% | residual activity [34] 100% | residual activity [35] 84% | residual activity [36] 100% | residual activity [37] 100% | residual activity [38] 100% | residual activity [39] 100% | residual activity [40] 100% | residual activity [41] 86% | residual activity [42] 100% | residual activity [43] 84% | residual activity [44] 100% | residual activity [45] 93% | inhibition [46] 0.75%

FC(F)(F)c1ccc2c(c1)nc(-c1cccnc1)n2C1CC1 [MSD-CYP11B2-Negative-control]
inactive: residual activity [1] 100% | residual activity [2] 97% | residual activity [3] 100% | residual activity [4] 100% | residual activity [5] 96% | residual activity [6] 100% | residual activity [7] 93% | residual activity [8] 100% | residual activity [9] 88% | residual activity [10] 100% | residual activity [11] 91% | residual activity [12] 100% | residual activity [13] 100% | residual activity [14] 84% | residual activity [15] 92% | residual activity [16] 100% | residual activity [17] 83% | residual activity [18] 100% | residual activity [19] 100% | residual activity [20] 100% | residual activity [21] 100% | residual activity [22] 91% | residual activity [23] 100% | residual activity [24] 100% | residual activity [25] 100% | residual activity [26] 100% | residual activity [27] 82% | residual activity [28] 100% | residual activity [29] 100% | residual activity [30] 100% | residual activity [31] 88% | residual activity [32] 100% | residual activity [33] 100% | residual activity [34] 100% | residual activity [35] 100% | residual activity [36] 100% | residual activity [37] 100% | residual activity [38] 100% | residual activity [39] 100% | residual activity [40] 100% | residual activity [41] 93% | residual activity [42] 100% | residual activity [43] 65% | residual activity [44] 100% | residual activity [45] 99% | inhibition [46] 6.79%
